This is an account of results in patent US8871738B2, “Fused bicyclic oxazolidinone CETP inhibitor” (Merck Sharp & Dohme Corp., priority 2011, dated 2014).

A word on the IC50: it is the concentration that inhibits the measured activity by half.

In the test the target is endogenous CETP from serum (Homo sapiens (Human), UniProt P11597). Nature of the test: RTA assay in 95% human serum (CETP-catalyzed CE and TG transfer, endogenous CETP). In kind it is biochemical. The note with it: RTA assay in 95% human serum; read-out: IC50.
Sequence of endogenous CETP from serum (P11597 18-493 limits assumed): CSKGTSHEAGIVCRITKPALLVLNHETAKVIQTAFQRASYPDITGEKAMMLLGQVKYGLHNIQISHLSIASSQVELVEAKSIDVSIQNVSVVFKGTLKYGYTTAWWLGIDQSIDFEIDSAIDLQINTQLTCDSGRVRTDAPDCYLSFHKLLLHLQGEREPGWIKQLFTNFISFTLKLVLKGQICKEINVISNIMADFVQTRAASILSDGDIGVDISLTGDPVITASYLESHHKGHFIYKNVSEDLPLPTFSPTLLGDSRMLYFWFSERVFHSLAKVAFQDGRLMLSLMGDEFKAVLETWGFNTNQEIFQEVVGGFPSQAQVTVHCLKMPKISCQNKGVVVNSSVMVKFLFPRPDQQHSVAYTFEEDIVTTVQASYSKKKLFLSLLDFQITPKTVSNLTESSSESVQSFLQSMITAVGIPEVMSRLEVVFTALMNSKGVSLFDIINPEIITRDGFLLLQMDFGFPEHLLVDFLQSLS
In the case of `Cc1cscc1-c1ccc(C(F)(F)F)cc1[C@@H]1CC[C@H]2[C@@H](c3cc(C(F)(F)F)cc(C(F)(F)F)c3)OC(=O)N12` [Example 24, (1R,5S,7aS)-1-[3,5-bis(trifluoromethyl)phenyl]-5-[2-(4-methylthiophen-3-yl)-5-(trifluoromethyl)phenyl]tetrahydro-1H-pyrrolo[1,2-c][1,3]oxazol-3-one], the IC50 stood at 122 nM.

Turning to `O=C1O[C@H](c2cc(C(F)(F)F)cc(C(F)(F)F)c2)[C@@H]2CC[C@@H](c3cc(C(F)(F)F)ccc3-c3cc(F)ccc3F)N12` [Example 25, (1R,5S,7aS)-1-[3,5-bis(trifluoromethyl)phenyl]-5-[2′,5′-difluoro-4-(trifluoromethyl)biphenyl-2-yl]tetrahydro-1H-pyrrolo[1,2-c][1,3]oxazol-3-one], the half-inhibitory concentration (IC50) turned out to be 104 nM.

Turning to `Cc1ccc(Cl)cc1-c1ccc(C(F)(F)F)cc1[C@@H]1CC[C@H]2[C@@H](c3cc(C(F)(F)F)cc(C(F)(F)F)c3)OC(=O)N12` [Example 26, (1R,5S,7aS)-1-[3,5-bis(trifluoromethyl)phenyl]-5-[5′-chloro-2′-methyl-4-(trifluoromethyl)biphenyl-2-yl]tetrahydro-1H-pyrrolo[1,2-c][1,3]oxazol-3-one], the IC50 worked out at 1220 nM. With `COc1cc(F)c(-c2ccc(C(=O)O)cc2C)cc1-c1ccc(C(F)(F)F)cc1[C@@H]1CC[C@H]2[C@@H](c3cc(C)cc(C(F)(F)F)c3)OC(=O)N12` [Example 29, 6′-fluoro-4′-methoxy-2-methyl-2″- {(1R,5S,7aS)-1-[3-methyl-5-(trifluoromethyl)phenyl]-3-oxotetrahydro-1H-pyrrolo[1,2-c][1,3]oxazol-5-yl}-4″- (trifluoromethyl)-1,1′:3′,1″- terphenyl-4-carboxylic acid], the IC50 is 44.6 nM. In the case of `COc1ccc(-c2ccc(C(=O)O)cc2C)cc1-c1ccc(F)cc1[C@@H]1CC[C@H]2[C@@H](c3cc(C(F)(F)F)cc(C(F)(F)F)c3)OC(=O)N12` [Example 34, 2″-{(1R,5S,7aS)-1-[3,5-bis(trifluoromethyl)phenyl]-3-oxotetrahydro-1H-pyrrolo[1,2-c][1,3]oxazol-5-yl}-4″-fluoro-4′-methoxy-2-methyl-1,1′:3′,1″- terphenyl-4-carboxylic acid], the IC50 worked out at 229 nM.

With `COc1ccc(-c2cnc(C(=O)O)cc2C)cc1-c1ccc(F)cc1[C@@H]1CC[C@H]2[C@@H](c3cc(C(F)(F)F)cc(C(F)(F)F)c3)OC(=O)N12` [Example 38, 5-(2′-{(1R,5S,7aS)-1-[3,5-bis(trifluoromethyl)phenyl}-3-oxotetrahydro-1H-pyrrolo[1,2-c][1,3]oxazol-5-yl}-4′-fluoro-6-methxoybiphenyl-3-yl)-4-methylpyridine-2-carboxylic acid], the IC50 stood at 1740 nM.

With `COc1cc(F)c(C(C)C)cc1-c1ccc(C(F)(F)F)cc1[C@@H]1CCC[C@H]2[C@@H](c3cc(C(F)(F)F)cc(C(F)(F)F)c3)OC(=O)N12` [Example 43, (1R,5S,8aS)-1-[3,5-bis(trifluoromethyl)phenyl]-5-[4′-fluoro-2′-methoxy-5′-(1-methylethyl)-4-(trifluoromethyl)biphenyl-2-yl]hexahydro[1,3]oxazolo[3,4-a]pyridin-3-one], the IC50 was found to be 1210 nM.

Consider `COc1cc(F)c(-c2ccc(C(=O)O)cc2C)cc1-c1ccc(C(F)(F)F)cc1[C@@H]1CCC[C@H]2[C@@H](c3cc(C(F)(F)F)cc(C(F)(F)F)c3)OC(=O)N12` [Example 44, 2″-{(1R,5S,8aS)-1-[3,5-bis(trifluoromethyl)phenyl]-3-oxohexahydro[1,3]oxazolo[3,4-a]pyridin-5-yl}-6′-fluoro-4′-methoxy-2-methyl-4″- (trifluoromethyl)-1,1′:3′,1″- terphenyl-4-carboxylic acid], for which the IC50 came out at 718 nM. In the case of `COc1ncc(C(C)C)cc1-c1ccc(C(F)(F)F)cc1[C@@H]1CC[C@H]2[C@@H](c3cc(C(F)(F)F)cc(C(F)(F)F)c3)OC(=O)N12` [Example 45, (1R,5S,7aS)-1-[3,5-bis(trifluoromethyl)phenyl]-5-{2-[2-methoxy-5-(1-methylethyl)pyridin-3-yl]-5-(trifluoromethyl)phenyl}tetrahydro-1H-pyrrolo[1,2-c][1,3]oxazol-3-one], the 50% inhibitory concentration (IC50) amounted to 44.7 nM. Regarding `COc1cc(F)c(CCC(=O)O)cc1-c1ccc(C(F)(F)F)cc1[C@@H]1CCC[C@H]2[C@@H](c3cc(C(F)(F)F)cc(C(F)(F)F)c3)OC(=O)N12` [Example 46, 3-[2′-{(1R,5S,8aS)-1-[3,5-bis(trifluoromethyl)phenyl]-3-oxohexahydro[1,3]oxazolo[3,4-a]pyridin-5-yl}-4-fluoro-6-methoxy-4′-(trifluoromethyl)biphenyl-3-yl]propanoic acid], the IC50 turned out to be 1630 nM. Under `COc1ccc(-c2ccc(C(=O)O)cc2C)cc1-c1ccc(N(C)C)nc1[C@@H]1C=C[C@H]2[C@@H](c3cc(C(F)(F)F)cc(C(F)(F)F)c3)OC(=O)N12` [Example 47, 3′-[2-{(1R,5S,7aS)-1-[3,5-bis(trifluoromethyl)phenyl]-3-oxo-5,7a-dihydro-1H-pyrrolo[1,2-c][1,3]oxazol-5-yl}-6-(dimethylamino)pyridin-3-yl]-4′-methoxy-2-methylbiphenyl-4-carboxylic acid] stands 491 nM; under `COc1cc(F)c(C(C)C)cc1-c1cnc(N(C)C)nc1[C@@H]1C=C[C@H]2[C@@H](c3cc(C(F)(F)F)cc(C(F)(F)F)c3)OC(=O)N12` [Example 48, (1R,5S,7aS)-1-[3,5-bis(trifluoromethyl)phenyl]-5-{2-(dimethylamino)-5-[4-fluoro-2-methoxy-5-(1-methylethyl)phenyl]pyrimidin-4-yl}-5,7a-dihydro-1H-pyrrolo[1,2-c][1,3]oxazol-3-one], 695 nM; under `COc1cc(F)c(C(C)C)cc1-c1cnc(N(C)C)cc1[C@@H]1C=C[C@H]2[C@@H](c3cc(C(F)(F)F)cc(C(F)(F)F)c3)OC(=O)N12` [Example 49, (1R,5S,7aS)-1-[3,5-bis(trifluoromethyl)phenyl]-5-{2-(dimethylamino)-5-[4-fluoro-2-methoxy-5-(1-methylethyl)phenyl]pyridin-4-yl}-5,7a-dihydro-1H-pyrrolo[1,2-c][1,3]oxazol-3-one], 438 nM.

In the case of `COc1cc(F)c(-c2ccc(C(=O)O)cc2C)cc1-c1ccc(C(F)(F)F)cc1[C@@H]1C=C[C@H]2[C@@H](c3cc(C(F)(F)F)cc(C(F)(F)F)c3)OC(=O)N12` [Example 50, 2″-{(1R,5S,7aS)-1-[3,5-bis(trifluoromethyl)phenyl]-3-oxo-5,7a-dihydro-1H-pyrrolo[1,2-c][1,3]oxazol-5-yl}-6′-fluoro-4′-methoxy-2-methyl-4″- (trifluoromethyl)-1,1′:3′,1″- terphenyl-4-carboxylic acid], the IC50 was determined as 47.9 nM.

Turning to `COc1cc(F)c(C(C)C)cc1-c1ccc(C(F)(F)F)cc1[C@@H]1C=C[C@H]2[C@@H](c3cc(C(F)(F)F)cc(C(F)(F)F)c3)OC(=O)N12` [Example 51, (1R,5S,7aS)-1-[3,5-bis(trifluoromethyl)phenyl]-5-[4′-fluoro-2′-methoxy-5′-(1-methylethyl)-4-(trifluoromethyl)biphenyl-2-yl]-5,7a-dihydro-1H-pyrrolo[1,2-c][1,3]oxazol-3-one], the IC50 was determined as 122 nM.
